Entries after “also recorded” stand apart in the source; their conditions may differ.
Key:
[1] = system: rabbit pups; settings: presented on its own to rabbit pups; Schaal et al. 2003; cited from earlier work
[2] = system: dogs diagnosed as nervous; assay: Collars and heart rate of nervous dogs, 24 h basal and fog horn startle (Example 5); type: in vivo, dog; settings: collar
Method: Dogs diagnosed as being “nervous” were treated with four different treatments on different days: Placebo collar, Pheromone only collar (Serg), Rabbit INTEROMONE® collar (RP) (prepared in accordance with Example 1), and INTEROMONE® Plus Pheromone collar (Serg+RP) (prepared according to formulation provided in Example 3). Each dog experienced a given collar for 24 hours. Heart rate of the dogs was measured by remote telemetry. FIG. 22 illustrates the effects of the collars on heart rate collected over a period of 24 hours.
Each dog experienced a loud noise (fog horn) during a 2 second blast. The noise startled the dogs. Each dog had the collar on before, during and after the startle experience. […] The data illustrates that Serg alone had no effect on the startled dog heart rate. […] The data further indicate that only the RP is effective in reducing the heart rate of startled dogs.

[3] = system: cat; assay: Collar containing rabbit pheromone worn by cats (Example 7); type: in vivo; settings: collar worn by a cat
Text: A collar containing 2-methylbut-2-enal can be prepared in accordance with Examples 1 or 2.

[4] = system: adult anxious dogs; assay: Collars, heart rate and behavior in adult anxious dogs, Latin square, foghorn startle (Example 6); type: in vivo, dog
Method: The objective of this study was to assess efficacy of pheromones/INTEROMONE® compositions to modulate heart rate and behavior in adult anxious dogs (trembling, cowering, shy). The dogs (8.1±0.18 kg; estimated 5-12 yr intact males) were obtained from a local research facility. Body weights and feed intake were recorded. Each dog was housed in a separately ventilated room with a minimum of 12 m^2 of floor space. Heart rate (HR) and surface temperature was measured using a telemetry system (Data Science International, St. Paul, Minn.). Behavior was recorded on a DVR and later reviewed by a trained individual. A scan sample was used with a recording interval of 5 min over 24 hours.
The dogs were treated with four different treatments on different days: Placebo collar (no Pheromone/INTEROMONE®), Pheromone only collar (Serg), Rabbit pheromone as INTEROMONE® collar (RP) (prepared in accordance with Example 1), and INTEROMONE® plus Pheromone collar (Serg+RP) (prepared in accordance with Example 3). At the end of 24 hours with a given collar, each dog was startled with a 110 db foghorn placed 12 cm from the dog's head while behavior and heart rate were recorded. Each dog received each treatment in a Latin square design with repeated measures over time. This model allowed evaluation of effects of treatment, dog, treatment by dog, time, treatment by time and dog by time.

[5] = system: nervous dogs; assay: Example 11 Study 1: baseline behavior and heart rate after collar or spray; type: in vivo, dog; settings: for pacing-walking behavior of individual dogs: Study 1, FIG. 3A; for sitting behavior of individual dogs: FIG. 3C; for heart rate of individual dogs: Study 1, dogs 1-4, FIG. 6; for overall dog heart rate and its decline: dogs 1-4, two hours after collar or spray, FIGS. 4, 5
Text: Eight dogs were obtained from a local contract research facility and assessment was made as to general dog health, behavior and heart rate. The dogs were estimated to be 2 to 7 years of age, mixed breed, and weighed averagely 8.1±0.18 kg at the start of the studies. […] Upon arrival each dog was bathed using shampoo containing flea and tick medicine (Hartz Mountain Corp. Secaucus, N.J. USA), and their body hair was shaved. Each dog was kept in a single room, which had 100% fresh air intake and exhaust. The dogs were fed twice (am and pm) per day ad libitum. At that time, the room was cleaned and the dogs obtained extra exercise. Water was available ad libitum.
Dog behavior was captured on video media at a sampling rate of 30 frames per second. Video records were reviewed in real time (with tape playing 30 frames per second). A scan sampling method was used to record dog behaviors each minute or each 5 minutes depending on the particular study. If the sample period was 120 minutes with four periods (0-30=0, 30-60=30, 60-90=60, and 90-120-90 min), then a scan sample was recorded each 1 minute. If the sample period was 24 hours, then the scan sample was collected each 5 minutes and summarized each hour. For example, pacing is when a dog walks in a stereotyped manner for minutes to hours. Because it was not easy to distinguish walking from pacing, the behaviors were merged. In addition, the video records could not clearly distinguish lying down and awake versus lying down and sleeping, therefore there was no separate description for these two behaviors.
Heart rate during the studies was measured by the use of a non-invasive telemetry system (Data Science International, St. Paul, Minn., USA). Leads were placed in contact with the dogs' shaved skin. Sensors measured heart rate, surface temperature and general activity. Data were transmitted to a receiving computer in another room. The sampling rate varied with the study, but was 5 seconds for the first two hours after treatments and then each 1 minute for 24 hours (depending on the particular study). For surface temperature measurements of the dog subjects, a thermistor was located against the skin of each dog. It recorded the surface temperature to the neared 0.1° C. on the same interval as the heart rate data.
Behavior and physiological data (heart rate and surface temperature) were analyzed by least squares analysis of variance using SAS (2011) software and the general linear models procedures. The experimental design of each study was a specialized randomized complete block in a Latin square design with data collected as a split plot over time. Dogs represented the blocks. Each dog received each treatment randomly in successive days or weeks. The statistical model included effects of treatment (TRT), dog, dog by treatment (TRT*DOG; error term used to assess treatment and dog effects), time (HR), treatment by time (TRT*HR), and residual error (SE; used to test remaining effects). Behavior data were collected and analyzed as counts per time period, but for clarity of presentation, the data are reported as percentage of time dogs engaged in each behavior.
In Study 1, baseline heart rate data were collected while the dogs each experienced 4 different treatments—a placebo collar (PLACEBO), Pheromone “H” Collar (SERG), Dog Appeasing Pheromone in collar form (DAPC) and the Rabbit Pheromone (RP; 1 μg/mL) formulated into a spray in accordance with Example 8. Each of the four treatments was given to each dog in a random order, with the treatment changing each week. Baseline heart rate and behavior data were collected for 30 minutes before each treatment application (see Table 8) and 2 hours after (see Table 9) (expressed in % of time).

[6] = 120 minutes after treatment, no startle, SERG, DAPC collars, RP spray 1 μg/mL

For C/C=C(\C)C=O [RP, 2-methylbut-2-enal], the “concentration sufficient to elicit full nipple search and grasping behavior (as low as)” value [1] is listed as 10 ng/mL, the “heart rate collected over 24 hours” value ([2]; basal testing, versus placebo, FIG. 22) is listed as “increased heart rate” and the “heart rate during startle” value ([2]; fog horn 2 second blast, versus control, FIG. 24) is listed as “lower heart rate during startle compared to control dogs”. For the same molecule, the “change in cat behavior” value [3] was “significant change in behavior towards a calmer demeanor”, the HR after startle ([4]; collar 24 h, 110 db foghorn, placebo 157.8±7.2, P<0.01) was 124.5±7.2 bpm and the time pacing ([4]; collar, placebo 3.8±0.02, P<0.05) was 3.0±0.2%. The time lying down ([4]; collar, placebo 63.2±4.8, P=0.01) was 87.4±5.4 % of time, the “effect on dog HR (summary)” value ([4]; collars) was “lowered HR” and the “sitting over time versus other treatments” value ([5]; 2-hour period after collar or spray, FIG. 3D) was “In the 60 minute period after treatment with rabbit pheromone, dogs also sat more than with the other treatments”. For the same molecule, the “average time dogs sat” value ([5]; 30 minute period after spray, FIG. 3D) was ~50 % of the time, the Defecate [5, 6] was 0 % of time and the Drink [5, 6] was 0.0 % of time. For the same molecule, the Eat [5, 6] was 0.0 % of time, the Lick self [5, 6] was 0 % of time and the Lying down [5, 6] was 58.5 % of time. For the same molecule, the Pace-walk [5, 6] was 7.6 % of time, the Sitting [5, 6] was 93.1 % of time and the Standing [5, 6] was 3.1 % of time. For the same molecule, the Urinate [5, 6] was 0 % of time, the “pacing-walking behavior of individual dogs” value ([5]; listed as RP spray) was “dog 7 showed reduced pacing-walking; also recorded: increased pacing-walking of dog 1 compared with the DAP collar” and the “pacing-walking behavior of individual dogs” value ([5]; listed as rabbit INTEROMONE® spray) was “Dog 3 increased pacing with Serg, but reduced its pacing with DAP collar and rabbit INTEROMONE® spray; also recorded: Dog 7's pacing was reduced by DAP collar and reduced even more by rabbit INTEROMONE® spray”. The “lying down behavior / activity of individual dogs” value ([5]; Study 1, compared with Placebo, FIG. 3B) was “For dog 2, both SERG and RP reduced lying down behavior significantly; also recorded: For dog 8, only RP increased dog activity and reduced lying down”, the “sitting behavior of individual dogs” value ([5]; Study 1, compared with Placebo, listed as RP spray) was “increased dog sitting in dogs 2 and 8” and the “sitting behavior of individual dogs” value ([5]; Study 1, compared with Placebo, listed as rabbit pheromone) was “dogs 2 and 8 showed increased sitting”. For the same molecule, the “heart rate of individual dogs” value [5] was “decreased the heart rates of dogs 3 and 4 compared to other treatments”, the “heart rate of individual dogs” value ([5]; listed as Rabbit pheromone) was “decreased heart rate in dog 3” and the “heart rate of individual dogs” value ([5]; listed as rabbit pheromone spray) was “Dog 3 had decreased heart rate”. The speed of calming ([5]; Study 1, spray versus collar) was “calms dogs faster than treatment with DAP collar”, the “heart rate decline (slope of regression equation)” value ([5]; dogs 1-4, FIG. 5, placebo 6 bpm/h) was 24.5 bpm/h and the “overall dog heart rate and its decline” value [5] was “had the greatest effect in decreasing dog heart rate”. For the same molecule, the “overall dog heart rate and its decline” value ([5]; listed as rabbit pheromone) was “most significantly (P<0.05) reduced overall dog heart rate; also recorded: greater decline in heart rate than Placebo”.

Source: patent US8741965B2, “Method of administering a pheromone composition to an animal to modify the animals behavior over an extended period of time” (Sergeant's Pet Care Products, Inc., priority 2011, dated 2014)
